“And” between values parts separate entries of the source, which are not always exact repeats. Equal entries are not always repeated. Where two headings read alike, the source gives them in different places.
Key:
MRPA0108 strain [1] = test: MIC of antibiotics alone and in combination with 1/4 × MIC peptide; format: cell-based, Pseudomonas aeruginosa; settings: for fold reduction of MIC of the antibiotic: antibiotic in combination with Trp-containing peptides at 1/4 × MIC, range over the peptides
Method: FIGURE 6 Antibacterial activity of antibiotics in combination with the Trp-containing peptides. Bacterial cultures were treated with a series of concentration of antibiotics ceftazidime (A), piperacillin (B), and levofloxacin (C) in the absence (control) and presence of a 1/4 × MIC peptide concentration at 37C overnight. The OD600 was recorded using a microtiter plate reader. The MIC was defined as the lowest antibiotics concentration that inhibited 95% of the bacterial growth. Phenylalanyl arginyl β-naphthylamide (PAβN), a broad-spectrum inhibitor for efflux pump, was used as a positive control. Each data point represents an average of six independent experiments. *P < 0.05 and **P < 0.01 indicate statistically significant differences between antibiotics alone and antibiotics in combination with peptide.

[2] = tested on: β-lactamase activity in MRPA0108 cells; test: β-Lactamase activity assay (nitrocefin kit) in treated cells; format: cell-based, Pseudomonas aeruginosa; settings: MRPA0108 cells treated with antibiotic alone, compared to control
Method: β-lactamase activity was measured by using a β-lactamase assay kit (YIASEN Biotech Co., Ltd., Shanghai, China) according to the manufacturer’s instructions. Briefly, mid-log growth-phase bacteria were diluted to 1 × 10^8 CFU/ml and treated with I1W or L12W at concentrations ranging from 3.13 to 50 μM for 12 h at 37°C. After induction, the cultures were harvested by centrifugation at 5,000 rpm at 4°C, washed three times with PBS buffer (pH 7.2), and then resuspended in the same buffer. The cells were sonicated on ice for 15 min, and the cell lysates containing β-lactamase were collected by centrifugation at 12,000 rpm for 30 min at 4°C. Fifty microliters of the prepared β-lactamase-containing lysates was mixed with 50 μl of assay buffer containing nitrocefin and reacted at room temperature in a dark environment for 20 min. Nitrocefin hydrolysis was measured spectrophotometrically at 490 nm. Concurrently, the total protein content was determined with a Bradford assay using the same supernatant. One milliunit of β-lactamase is defined as 1 nanomole of nitrocefin hydrolyzed per minute per microgram of protein.

[3] = tested on: rhamnolipid production in MRPA0108; test: Rhamnolipid production, orcinol method; format: cell-based, Pseudomonas aeruginosa; settings: peptide at 1/4 × MIC, 24 h, absorbance 420 nm, vs control, triplicate
Method: The culture supernatant was obtained after centrifugation at 12,000×g for 10 min. (1) LasB elastase activity was measured using elastin-Congo red (ECR) as the substrate, as described by [Pattnaik et al. (2018)]. Briefly, 100 μl of the culture supernatant was added to 900 μl of ECR buffer (100 mM Tris-HCl, 1 mM CaCl2, pH 7.5) containing 10 mg of ECR and then incubated with shaking at 37°C for 18 h. Then, 100 μl of 0.12 M EDTA was added to stop the reaction. The insoluble ECR was removed by centrifugation, and the supernatant absorbance was measured at 495 nm. The optical density (OD) 495 nm/OD 600 nm represents the elastase activity. (2) LasA protease activity was measured as follows ([Pattnaik et al., 2018]): first, the culture supernatant was filtered to remove the bacterial cells, and then 150 μl of sterile-filtered supernatant was added to 2% azocasein (prepared in 50 mM Tris-HCl) and incubated for 4 h at 37°C. Trichloroacetic acid (TCA, 10%) was added to precipitate the undigested substrate. After centrifugation at 10,000 rpm for 10 min, 1 M NaOH was added to the supernatant, and the relative protease activity was measured at OD 440 nm. (3) The pyocyanin assay was based on the absorbance of excreted pyocyanin at 520 nm in an acidic solution ([Kong et al., 2005]). Three milliliters of culture supernatant were mixed with 2 ml of chloroform for 20 min, and then the pyocyanin from the chloroform phase was reextracted using 0.2 M HCl for 15 min to obtain a pink-colored pyocyanin solution. The OD 520 nm was measured to evaluate the change in pyocyanin content. (4) Rhamnolipid detection was carried out as previously described ([Wittgens et al., 2011]). Briefly, 500 μl of culture supernatant was mixed with 500 μl of ethyl acetate and vortexed vigorously for 15 s to extract rhamnolipid. After centrifugation at 10,000×g for 5 min at 4°C, the organic phase containing rhamnolipids was obtained and evaporated at room temperature overnight. The rhamnolipid extract dissolved in ultrapure water was mixed with orcinol reagent (0.19% orcinol in 53% H2SO4) and incubated at 80°C for 30 min. The absorbance was measured at 420 nm. (5) The level of C4-HSL was quantified by GC-MS as previously described ([Guo et al., 2012]).

MRPA0108 = test: Checkerboard assay (FICI) of peptides with antibiotics; format: cell-based, Pseudomonas aeruginosa; settings: MRPA0108, 24 h 37°C, median of at least three experiments, synergy ≤ 0.5, additive 0.5-1, indifference 1-2
Method: The synergistic effect of peptides and antibiotics was evaluated using the checkerboard method, in which the fractional inhibitory concentration index (FICI) was used to analyze the type of interaction between compounds ([Berditsch et al., 2015]). A 100 μl inoculum of 10^5 CFU/ml planktonic bacteria was added to the respective wells of 96-well microtiter plates, and then serial dilutions of peptide and antibiotic at 100 μl volumes were added to each well and incubated at 37°C for 24 h. The OD 600 nm value was measured with a microplate plate reader (Varioskan Flash Microplate Reader, Thermo Fisher Scientific Co., Beijing) as an indicator of growth inhibition. The resulting checkerboard contained each combination of peptide and antibiotic in 9 doubly increasing concentrations, with wells containing the highest concentration of each antibiotic at opposite corners. The concentrations tested for every combination of peptide-antibiotic were their respective MICs. MH medium and the peptide/antibiotic combination served as negative and positive controls, respectively. The FICI is calculated as FICa plus FICb, where FICa is the MIC of the peptide in the presence of antibiotics/the MIC of the peptide alone, and FICb is the MIC of the antibiotic in the presence of peptide/the MIC of the antibiotic alone. Drug interactions were defined as follows: synergy, FICI ≤ 0.5; additive effect, 0.5 < FICI ≤ 1; and indifference, 1 < FICI ≤ 2 ([Hollander et al., 1998]; [Yoon et al., 2004]). The results were recorded in at least three independent experiments, and the median FICI values were used in the analysis.

MRPA0108 strain [4] = settings: previous study, ref Han et al., 2020; cited from earlier work
From the text: Supplement Table_1.docx, table 1: Table S1 Biological characteristics and antibacterial activities of the Trp-containing antimicrobial peptides (32) | column: MIC(μM)

[5] = cited from earlier work
From the text: Supplement Table_1.docx, table 1: Table S1 Biological characteristics and antibacterial activities of the Trp-containing antimicrobial peptides (32) | column: Hemolysis (μM)

[6] = lowest concentration inhibiting 95% of growth, overnight 37°C, six experiments

Molecule | fold reduction of MIC of the antibiotic (MRPA0108 strain [1]) | MIC of antibiotic alone (MRPA0108 strain [1]; [6]) [µM] | MIC of antibiotic in combination with 1/4 × MIC L12W (MRPA0108 strain [1]; [6]) [µM] | increase of β-lactamase activity [2] | inhibition of rhamnolipid production [3] [%] | FICI in combination with ceftazidime (MRPA0108) | FICI in combination with piperacillin (MRPA0108) | MIC (MRPA0108 strain [4]) [µM] | Hemolysis ([5]; as previously reported, ref Bi et al., 2013) [µM] | FICI in combination with levofloxacin (MRPA0108) | Hemolysis [5] [µM]
CC(C)(O/N=C(\C(=O)N[C@@H]1C(=O)N2C(C(=O)[O-])=C(C[n+]3ccccc3)CS[C@H]12)c1csc(N)n1)C(=O)O [ceftazidime] | 8–32 fold | 30 | 0.94 | fourfold | – | – | – | – | – | – | –
C[C@H]1COc2c(N3CCN(C)CC3)c(F)cc3c(=O)c(C(=O)O)cn1c23 [levofloxacin] | 0–4 fold | – | – | – | – | – | – | – | – | – | –
CCN1CCN(C(=O)N[C@@H](C(=O)N[C@@H]2C(=O)N3[C@@H]2SC(C)(C)[C@@H]3C(=O)O)c2ccccc2)C(=O)C1=O [piperacillin, reference compound] | 2–11 fold | – | – | 1.8 fold | – | – | – | – | – | – | –
IKKILSKIKKWLK-NH2 [L11W] | – | – | – | – | 24.3 | 0.25 | 0.28–0.49 and 0.34 | 25 | > 500 | – | –
IKKWWSKIKKLLK-NH2 [I4WL5W] | – | – | – | – | 37.5 | 0.43 | 0.68 | 12.5 | – | 1.12 | > 500
WKKIWSKIKKLLK-NH2 [I1WL5W] | – | – | – | – | 38.8 | 0.37 | 0.59 | 12.5 | – | 0.75 | > 500

Source: publication PMC7906020, “Trp-Containing Antibacterial Peptides Impair Quorum Sensing and Biofilm Development in Multidrug-Resistant Pseudomonas aeruginosa and Exhibit Synergistic Effects With Antibiotics” (Frontiers in Microbiology, 2021)
